Where two headings read alike, the source gives them in different places.

Here are results for five molecules from patent publication EP0029306A1, “Aminoalkyl compounds, their production and pharmaceutical compositions containing them” (GLAXO GROUP LIMITED, priority 1979, dated 1981).

The subject of the test is histamine induced gastric acid secretion. Put plainly: Inhibition of histamine induced gastric acid secretion in the perfused rat stomach preparation. The settings on record: sodium pentobarbitone anaesthesia. Format: in vivo.

On to `Cn1nc(CO)nc1NCCCCCOc1cccc(CN2CCCCC2)c1` [2(a)], for which the ED50 (usually the dose that gives a 50% effect, or the effect in half of the subjects) (read-out: ED50) stood at 0.2 mg/kg.

With `Cn1nc(N)nc1NCCCCCOc1cccc(CN2CCCCC2)c1` [1(b), 1-methyl-N^5-[5-[3-(1-piperidinyl-methyl)phenoxy]pentyl]-1H-1,2,4-triazole-3,5-diamine], the median effective dose (ED50) (read-out: ED50) was determined as 0.19 mg/kg.

`CNC(=C[N+](=O)[O-])NCCCCCOc1cccc(CN2CCCCC2)c1` [5(b), N-[5-[3-(1-Piperidinylmethyl)phenoxy]pentyl]-N^1methyl-2-nitro-l,l-ethenediamine] displayed an ED50 of 0.027 mg/kg.

On to `CC(=O)Nc1nc(NCCCCCOc2cccc(CN3CCCCC3)c2)n(C)n1` [Example 3], for which the ED50 (read-out: ED50) came to 0.22 mg/kg.

In turn, “3-Phenylmethyl-5-[[2-[2-[3-(1-piperidinylmethyl)phenoxy] ethoxy]ethyl]amino]-1H-1,2,4-triazole [Example 4]” showed an ED50 of 0.17 mg/kg.
